In patent US20050260126A1 (priority 2002, published 2005):
Counter-ions that a name gives are not always drawn.

How the values were obtained:
[1] = test system: abnormal prion proteins (kuru plaques) in brain sections of GSS patients; set-up: species or system human; details: GSS patient brain sections, 10-200 μM in 50% ethanol, 30 minutes
[2] = Slc:ICR, mouse, not told, iv
ScN2a cells = details: for Concentration of inhibiting cell proliferation TC: mouse
in vivo = details: male, Crj:CD1, mouse, iv
[3] = test system: abnormal prion proteins in ScN2a cells with persistent infection of scrapie; test: cells; type: cell-based, mouse; details: for IC50: Mus musculus, ScN2a, 96 h, read-out: Inhibitory effects on producing abnormal prion protein IC50; for Inhibitory effects on producing abnormal prion proteins (in words): ScN2a cells

Row | SMILES | Detection of spotted depositions of abnormal prion proteins (fluorescent signals) [1] | Permeability into the brain: content in Brain [2] | Permeability into the brain: content in Plasma [2] | Concentration of inhibiting cell proliferation TC (ScN2a cells) | MTD (in vivo) | IC50 [3] | Inhibitory effects on producing abnormal prion proteins (in words) [3] | TC and safety concentration margin (in words) (ScN2a cells)
1 | CCN(CC)c1ccc(/C=C/c2nc3ccccc3[nH]2)cc1 [BF-126, 4-[2-(2-benzimidazole)-ethenyl]-N,N-diethyl-benzenamine p-toluenesulfonate] | spotted fluorescent signals were observed | 7.2 % ID/g or ml | 2.7 % ID/g or ml | 25 µM | ≥ 10 mg/kg | 0.1 µM |  | 
2 | Nc1ccc(C(=O)Nc2ccc(-c3nc4ccc(NC(=O)c5ccc(N)cc5)c(Cl)c4[nH]3)cc2)cc1 [Compound N-227, 4-[6-(N′-(4-amino-benzoyl)amino)-7-chlorobenzimidazol-2-yl]-N-(4-aminobenzoyl)aniline] | spotted fluorescent signals were observed |  |  | 10 µM |  | 0.01 µM |  | 
3 | CN(C)c1ccc(/C=C/c2nc3cc(F)ccc3o2)cc1 [BF-133, 2-(4-dimethylamino) styryl-5-fluoro-benzoxazole] | spotted fluorescent signals were observed | 5.5 % ID/g or ml | 1.3 % ID/g or ml | 50 µM |  | 0.005 µM |  | 
4 | Nc1ccc(/C=C/c2nc3ccccc3[nH]2)cc1 [Compound N-398, 4-[2-(2-benzimidazolyl)-ethenyl]benzenamine sulfate] | spotted fluorescent signals were observed |  |  | 50 µM |  | 0.005 µM |  | 
5 | CN(C)c1ccc(/C=C/c2nc3ccc(F)cc3o2)cc1 [BF-148, 2-(4-dimethylamino) styryl-6-fluoro-benzoazole] | spotted fluorescent signals were observed |  |  | 10 µM |  | 0.001 µM | highly inhibitory effects | 
6 | CN(C)c1ccc(-c2ccc3ccccc3n2)cc1 [Compound N-310, 2-[(4-dimethylamino)-phenyl]quinoline] | spotted fluorescent signals were observed | 15 % ID/g or ml | 1.0 % ID/g or ml | 50 µM |  | 0.005 µM |  | 
7 | CNc1ccc(/C=C/c2nc3ccccc3o2)cc1 [BF-169, 2-(4-methylamino)-styrylbenzoxazole] | spotted fluorescent signals were observed |  |  | 100 µM | ≥ 10 mg/kg | 0.01 µM |  | 
8 | CCN(CC)c1ccc(/C=C/c2cn3cc(F)ccc3n2)cc1 [BF-136, 2-[2-(4-diethylaminophenyl)ethenyl]-6-fluoroimidazo[1,2-a]-pyridine] | spotted fluorescent signals were observed |  |  | 10 µM |  | 0.001 µM | highly inhibitory effects | 
9 | CN(C)c1ccc(/C=C/c2nc3ccccc3o2)cc1 [Compound N-282, 2-(4-dimethylamino) styrylbenzoxazole] | spotted fluorescent signals were observed | 4.0 % ID/g or ml | 0.7 % ID/g or ml | 50 µM |  | 0.05 µM |  | 
10 | CCN(CC)c1ccc(-c2ccc3ccccc3n2)cc1 [Compound N-313, 2-[(4-diethylamino)-phenyl]quinoline] | spotted fluorescent signals were observed | 4.6 % ID/g or ml | 1.1 % ID/g or ml | 50 µM |  | 0.5 µM |  | 
11 | CCN(CC)c1ccc(/C=C/c2nc3cc(F)ccc3[nH]2)cc1 [BF-166, 2-(4-diethylamino)-styryl-5-fluoro-benzimidazole] | spotted fluorescent signals were observed |  |  | 10 µM | < 10 mg/kg | 0.01 µM |  | 
12 | CN(C)c1ccc2cc(-c3nc4cc(F)ccc4s3)ccc2c1 [BF-154, 5-fluoro-2-(6-dimethyl-aminonaphthalen-2-yl)benzothiazole] | spotted fluorescent signals were observed | 1.1 % ID/g or ml | 1.4 % ID/g or ml |  |  |  |  | 
13 | CNc1ccc(/C=C/C=C/c2nc3ccccc3s2)cc1 [BF-187, 2-[[4-(4-methylamino)-phenyl]-1,3-butadienyl]-benzothiazole] |  | 3.6 % ID/g or ml | 1.3 % ID/g or ml | 10 µM | ≥ 10 mg/kg | 0.01 µM |  | 
14 | CNc1ccc(/C=C/c2nc3ccc(OCCF)cc3o2)cc1 [BF-168, 6-(2-fluoroethoxy)-2-[2-(4-methylamino-phenyl)ethenyl]-benzoxazole] | spotted fluorescent signals were observed |  |  | 10 µM | ≥ 10 mg/kg | 0.001 µM | highly inhibitory effects | 
15 | COc1cc(/C=C/c2nc3ccccc3s2)cc(OC)c1 [Compound N-408, 2-[2-(3,5-dimethoxy-phenyl)ethenyl]-benzothiazole] | spotted fluorescent signals were observed |  |  | 100 µM |  | 0.01 µM |  | 
16 | Cc1ccc2sc(/C=C/c3ccccc3C)nc2c1 [Compound N-440, 2-[2-(2-methylphenyl)-ethenyl]-5-methyl-benzothiazole] | spotted fluorescent signals were observed |  |  | 100 µM |  | 0.1 µM |  | 
17 | Clc1ccccc1/C=C/c1nc2ccccc2s1 [Compound N-454, 2-[2-(2-chlorophenyl)ethenyl]benzothiazole] | spotted fluorescent signals were observed |  |  | 100 µM |  | 0.01 µM |  | 
18 | CN(C)c1ccc(/C=C/c2nc3cc(F)ccc3s2)cc1 [BF-162, 2-(4-dimethylamino) styryl-5-fluorobenzo-thiazole] | spotted fluorescent signals were observed |  |  | 100 µM |  | 0.01 µM |  | 
19 | CN(C)c1ccc(/C=C/c2nc3cc4c(cc3s2)OCO4)cc1 [Compound N-277, 4-[2-(5,6-methylene-dioxy-benzothiazol-2-yl)ethenyl]-N,N-di-methylbenzenamin] | detection of spotted depositions of abnormal prion proteins |  |  | 50 µM |  | 0.05 µM |  | 
20 | CN(C)c1ccc(/C=C/c2nc3ccccc3s2)c(O)c1 [BF-192, 2-[2-(2-hydroxy-4-dimethylaminophenyl)ethenyl]benzothiazole] |  | 5.5 % ID/g or ml | 2.6 % ID/g or ml | >10 µM | ≥ 10 mg/kg | 0.0016 µM |  | 
21 | Clc1ccc(/C=C/c2nc3ccccc3[nH]2)cc1 [Compound N-457, 2-[2-(4-chlorophenyl)ethenyl]benzimidazole] |  | 7.1 % ID/g or ml | 2.8 % ID/g or ml | 100 µM | ≥ 10 mg/kg | 0.001 µM | highly inhibitory effects | higher TCs, therefore higher safety concentration margins
22 | CNc1ccc(-c2nc3ccc(O)cc3s2)cc1 [BF-172, 2-(4-methylamino)-phenyl-6-hydroxybenzo thiazole] |  | 4.9 % ID/g or ml | 2.9 % ID/g or ml | >10 µM | ≥ 10 mg/kg | 0.0016 µM |  | 
23 | CN(C)c1ncc(/C=C/c2nc3ccccc3o2)s1 [BF-197, 2-[2-(2-dimethyl-aminothiazol-5-yl)-ethenyl]benzoxazole] |  | 15 % ID/g or ml | 1.9 % ID/g or ml | 10 µM | ≥ 10 mg/kg | 0.016 µM |  | 
24 | CN(C)c1ccc(/C=C/c2nc3ccccc3s2)cc1 [Compound N-276, 4-[2-(2-benzothiazolyl)-ethenyl]-N,N-dimethyl-benzenamine] | spotted fluorescent signals were observed |  |  | 50 µM |  | 0.005 µM |  | 
25 | CN(C)c1ccc(/C=C/c2ccco2)cc1 [BF-142, 2-[2-(4-dimethylamino-phenyl)ethenyl]furan] | spotted fluorescent signals were observed |  |  | 100 µM |  | 0.01 µM |  | 
26 | CN(C)c1ccc2cc(-c3nc4cc(F)ccc4o3)ccc2c1 [BF-151, 5-fluoro-2-(6-dimethyl-aminonaphthalen-2-yl)benzoxazole] | spotted fluorescent signals were observed |  |  | 100 µM |  | 0.01 µM |  | 
